Reference: patent US8097722B2 (priority 2008, dated 2012)

Experiments:
Assay type in all cases: biochemical, porcine
[1] = test system: liver PMPMEase
[2] = test system: brain PMPMEase
[3] = molecular target: T1, Purified PMPMEase (Sus scrofa, UniProt Q29550)
T1 construct: from tissue; host or cells: porcine liver supernatant, purified by column chromatography
T1 sequence (Q29550 19-566): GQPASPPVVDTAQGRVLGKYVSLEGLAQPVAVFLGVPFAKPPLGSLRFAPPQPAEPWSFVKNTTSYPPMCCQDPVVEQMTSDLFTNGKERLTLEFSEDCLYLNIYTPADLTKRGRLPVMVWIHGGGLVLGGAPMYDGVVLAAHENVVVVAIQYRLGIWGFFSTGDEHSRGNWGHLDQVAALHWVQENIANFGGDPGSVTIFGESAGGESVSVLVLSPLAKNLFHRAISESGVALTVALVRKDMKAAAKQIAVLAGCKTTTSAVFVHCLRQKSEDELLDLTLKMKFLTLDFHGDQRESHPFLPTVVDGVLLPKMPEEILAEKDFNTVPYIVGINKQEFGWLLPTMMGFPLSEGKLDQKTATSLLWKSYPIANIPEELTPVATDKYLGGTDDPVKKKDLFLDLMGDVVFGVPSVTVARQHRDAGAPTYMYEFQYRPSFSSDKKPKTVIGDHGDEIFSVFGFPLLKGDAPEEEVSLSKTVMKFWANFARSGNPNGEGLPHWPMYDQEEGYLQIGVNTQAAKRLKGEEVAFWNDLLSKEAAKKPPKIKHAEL

## CCOP(=S)(OCC)Oc1ccc(Cl)cc1Cl [Dichlofenthion]
[1]
  Liver Mean (mean percent inhibition relative to the controls): 56%
[2]
  Brain Mean (mean percent inhibition relative to the controls): NO INHIBITION

## COP(=O)(OC)OC=C(Cl)Cl [Dichlorvos]
[1]
  Liver Mean (mean percent inhibition relative to the controls): 83%
[2]
  Brain Mean (mean percent inhibition relative to the controls): 81%

## CCSCCSP(=O)(OC)OC [Demeton-S-M]
[1]
  Liver Mean (mean percent inhibition relative to the controls): 12%
[2]
  Brain Mean (mean percent inhibition relative to the controls): 31%

## CCOP(=S)(OCC)ON=C(C#N)c1ccccc1Cl [Chlorphoxim]
[1]
  Liver Mean (mean percent inhibition relative to the controls): 100%
[2]
  Brain Mean (mean percent inhibition relative to the controls): 55%

## CCOP(=S)(OCC)OP(=S)(OCC)OCC [Sulfotep]
[1]
  Liver Mean (mean percent inhibition relative to the controls): 97%
[2]
  Brain Mean (mean percent inhibition relative to the controls): 47%

## CNP(=S)(OC)O/C(C)=C/C(=O)OC(C)C (centres unmarked) [Safrotin]
[1]
  Liver Mean (mean percent inhibition relative to the controls): 54%
[2]
  Brain Mean (mean percent inhibition relative to the controls): 52%

## O=C(C(=O)c1ccccc1)c1ccccc1 [Benzil]
[3]
  Residual activity (% of Control, SEM, n = 3) 0.1 mM: *69.4 ± 0.24 % of Control
  Residual activity (% of Control, SEM, n = 3) 1 mM: 38.0 ± .43 % of Control

## CCOP(=O)(N=C1SCC(C)S1)OCC (centres unmarked) [Mephosfolan]
[1]
  Liver Mean (mean percent inhibition relative to the controls): 100%

## COP(=S)(OC)SCn1nnc2ccccc2c1=O [Azinphos-M]
[1]
  Liver Mean (mean percent inhibition relative to the controls): 47%
[2]
  Brain Mean (mean percent inhibition relative to the controls): 73%

## CCOC(=O)CC(SP(=O)(OC)OC)C(=O)OCC (centres unmarked) [Malaoxon]
[1]
  Liver Mean (mean percent inhibition relative to the controls): 87%
[2]
  Brain Mean (mean percent inhibition relative to the controls): 51%

## COP(=S)(OC)Oc1ccc([N+](=O)[O-])c(C)c1 [Fenitrothion]
[1]
  Liver Mean (mean percent inhibition relative to the controls): 98%
[2]
  Brain Mean (mean percent inhibition relative to the controls): 75%

## CCOP(=S)(OCC)Oc1cc(Cl)c(SC)cc1Cl [Chlorthiophos]
[1]
  Liver Mean (mean percent inhibition relative to the controls): 52%
[2]
  Brain Mean (mean percent inhibition relative to the controls): 22%

## CNC(=O)CSP(=O)(OC)OC [Omethoate]
[1]
  Liver Mean (mean percent inhibition relative to the controls): 12%
[2]
  Brain Mean (mean percent inhibition relative to the controls): 33%

## CCOP(=S)(OCC)SCn1c(=O)oc2cc(Cl)ccc21 [Phosalone]
[1]
  Liver Mean (mean percent inhibition relative to the controls): 79%
[2]
  Brain Mean (mean percent inhibition relative to the controls): 62%

## COP(=S)(OC)Oc1ccc(S(=O)(=O)N(C)C)cc1 [Famphur]
[1]
  Liver Mean (mean percent inhibition relative to the controls): 71%
[2]
  Brain Mean (mean percent inhibition relative to the controls): 60%

## CCOP(=S)(OCC)SCSP(=S)(OCC)OCC [Ethion]
[1]
  Liver Mean (mean percent inhibition relative to the controls): 92%
[2]
  Brain Mean (mean percent inhibition relative to the controls): NO INHIBITION

## Edifenphos
[1]
  Liver Mean (mean percent inhibition relative to the controls): 97%
[2]
  Brain Mean (mean percent inhibition relative to the controls): 81%

## COP(=S)(OC)Oc1ccc(Sc2ccc(OP(=S)(OC)OC)cc2)cc1 [Abate]
[1]
  Liver Mean (mean percent inhibition relative to the controls): 80%
[2]
  Brain Mean (mean percent inhibition relative to the controls): 59%

## COC(=O)/C=C(\C)OP(=O)(OC)OC [Phosdrin]
[1]
  Liver Mean (mean percent inhibition relative to the controls): 70%
[2]
  Brain Mean (mean percent inhibition relative to the controls): 67%

## CCOC(=O)CC(SP(=S)(OC)OC)C(=O)OCC (centres unmarked) [Malathion]
[1]
  Liver Mean (mean percent inhibition relative to the controls): 53%
[2]
  Brain Mean (mean percent inhibition relative to the controls): 51%

## CCOP(=S)(OCC)Oc1nc(Cl)c(Cl)cc1Cl [Chlorpyriphos]
[1]
  Liver Mean (mean percent inhibition relative to the controls): 100%
[2]
  Brain Mean (mean percent inhibition relative to the controls): 67%

## CCOP(=S)(OCC)Oc1ccc([S+](C)[O-])cc1 (centres unmarked) [Fensulfothion]
[1]
  Liver Mean (mean percent inhibition relative to the controls): 100%
[2]
  Brain Mean (mean percent inhibition relative to the controls): 100%

## COP(=S)(OC)Oc1cc(Cl)c(I)cc1Cl [Jodfenphos]
[1]
  Liver Mean (mean percent inhibition relative to the controls): 96%
[2]
  Brain Mean (mean percent inhibition relative to the controls): 69%

## COP(=S)(OC)Oc1ccc([N+](=O)[O-])cc1 [Methyl-Parathion]
[1]
  Liver Mean (mean percent inhibition relative to the controls): 100%
[2]
  Brain Mean (mean percent inhibition relative to the controls): 75%

## COP(=S)(OC)Oc1ccc(SC)c(C)c1 [Fenthion]
[1]
  Liver Mean (mean percent inhibition relative to the controls): 40%
[2]
  Brain Mean (mean percent inhibition relative to the controls): 17%

## CCOP(=O)(OCC)SCCSCC [Demeton-S]
[1]
  Liver Mean (mean percent inhibition relative to the controls): 96%
[2]
  Brain Mean (mean percent inhibition relative to the controls): 62%

## Prothiofos
[1]
  Liver Mean (mean percent inhibition relative to the controls): 52%
[2]
  Brain Mean (mean percent inhibition relative to the controls): 6%

## CCN(CC)C(=O)/C(Cl)=C(/C)OP(=O)(OC)OC [Phosphamidon]
[1]
  Liver Mean (mean percent inhibition relative to the controls): 69%
[2]
  Brain Mean (mean percent inhibition relative to the controls): 53%

## Dicrotophos
[1]
  Liver Mean (mean percent inhibition relative to the controls): 56%

## COP(=S)(Oc1ccc(C#N)cc1)c1ccccc1 (centres unmarked) [Cyamophenphos]
[1]
  Liver Mean (mean percent inhibition relative to the controls): 53%
[2]
  Brain Mean (mean percent inhibition relative to the controls): 52%

## CCOP(=S)(OCC)SCCl [Chlormefos]
[1]
  Liver Mean (mean percent inhibition relative to the controls): 86%
[2]
  Brain Mean (mean percent inhibition relative to the controls): 65%

## COc1nn(CSP(=S)(OC)OC)c(=O)s1 [Methidathion]
[1]
  Liver Mean (mean percent inhibition relative to the controls): 78%
[2]
  Brain Mean (mean percent inhibition relative to the controls): 56%

## CCN(CC)c1nc(C)cc(OP(=S)(OC)OC)n1 [Pirimiphos-M]
[1]
  Liver Mean (mean percent inhibition relative to the controls): 79%
[2]
  Brain Mean (mean percent inhibition relative to the controls): 42%

## CCOc1cc(OP(=S)(OC)OC)nc(CC)n1 [Etrimfos]
[1]
  Liver Mean (mean percent inhibition relative to the controls): 100%
[2]
  Brain Mean (mean percent inhibition relative to the controls): 78%

## Monocrotophos
[1]
  Liver Mean (mean percent inhibition relative to the controls): 18%
[2]
  Brain Mean (mean percent inhibition relative to the controls): 30%

## CCOP(=S)(OCC)SC(CCl)N1C(=O)c2ccccc2C1=O (centres unmarked) [Dialifos]
[1]
  Liver Mean (mean percent inhibition relative to the controls): 96%
[2]
  Brain Mean (mean percent inhibition relative to the controls): 52%

## COP(=S)(OC)Oc1ccc(C#N)cc1 [Cyanophos]
[1]
  Liver Mean (mean percent inhibition relative to the controls): 89%
[2]
  Brain Mean (mean percent inhibition relative to the controls): 65%

## CCOP(=S)(OCC)SCSc1ccc(Cl)cc1 [Carbophenothion]
[1]
  Liver Mean (mean percent inhibition relative to the controls): 49%
[2]
  Brain Mean (mean percent inhibition relative to the controls): 55%

## COP(=S)(Oc1cc(Cl)c(Br)cc1Cl)c1ccccc1 (centres unmarked) [Leptophos]
[1]
  Liver Mean (mean percent inhibition relative to the controls): 60%
[2]
  Brain Mean (mean percent inhibition relative to the controls): 29%

## COP(=S)(OC)Oc1cc(Cl)c(Cl)cc1Cl [Ronnel]
[1]
  Liver Mean (mean percent inhibition relative to the controls): 93%
[2]
  Brain Mean (mean percent inhibition relative to the controls): 45%

## Heptenophos
[1]
  Liver Mean (mean percent inhibition relative to the controls): 96%
[2]
  Brain Mean (mean percent inhibition relative to the controls): 71%

## Acephate
[1]
  Liver Mean (mean percent inhibition relative to the controls): NO INHIBITION
[2]
  Brain Mean (mean percent inhibition relative to the controls): 50%

## CNC(=O)CSP(=S)(OC)OC [Dimethoate]
[1]
  Liver Mean (mean percent inhibition relative to the controls): 12%

## COP(N)(=O)SC (centres unmarked) [Methamidophos]
[1]
  Liver Mean (mean percent inhibition relative to the controls): 45%
[2]
  Brain Mean (mean percent inhibition relative to the controls): 24%

## CCOP(=O)(NC(C)C)Oc1ccc(SC)c(C)c1 (centres unmarked) [Phenamiphos]
[1]
  Liver Mean (mean percent inhibition relative to the controls): 92%

## CNC(=O)C(C)SCCSP(=O)(OC)OC (centres unmarked) [Vamidothion]
[1]
  Liver Mean (mean percent inhibition relative to the controls): 55%

## CCCSP(=O)(OCC)Oc1ccc(Br)cc1Cl (centres unmarked) [Profenofos]
[1]
  Liver Mean (mean percent inhibition relative to the controls): 97%
[2]
  Brain Mean (mean percent inhibition relative to the controls): 81%

## CCOP(=S)(OCC)Oc1ccc2c(C)c(Cl)c(=O)oc2c1 [Coumaphos]
[1]
  Liver Mean (mean percent inhibition relative to the controls): 46%
[2]
  Brain Mean (mean percent inhibition relative to the controls): 62%

## CCCSP(=O)(OCC)Oc1cnn(-c2ccc(Cl)cc2)c1 (centres unmarked) [Pyraclofos]
[1]
  Liver Mean (mean percent inhibition relative to the controls): 95%
[2]
  Brain Mean (mean percent inhibition relative to the controls): 82%

## CCCSP(=S)(OCC)Oc1ccc(Cl)cc1Cl (centres unmarked) [Tokuthion]
[1]
  Liver Mean (mean percent inhibition relative to the controls): 76%
[2]
  Brain Mean (mean percent inhibition relative to the controls): 100%

## CCOP(=S)(OCC)SC1OCCOC1SP(=S)(OCC)OCC (centres unmarked) [Dioxathion]
[1]
  Liver Mean (mean percent inhibition relative to the controls): 57%
[2]
  Brain Mean (mean percent inhibition relative to the controls): 15%

## CCOP(=S)(OCC)Oc1cc(C)nc(C(C)C)n1 [Diazinon]
[1]
  Liver Mean (mean percent inhibition relative to the controls): 95%
[2]
  Brain Mean (mean percent inhibition relative to the controls): 31%

## COP(=O)(OC)O/C(=C/Cl)c1cc(Cl)c(Cl)cc1Cl [Tetrachlorvinphos]
[1]
  Liver Mean (mean percent inhibition relative to the controls): 91%
[2]
  Brain Mean (mean percent inhibition relative to the controls): 100%

## CCOP(=S)(OCC)Oc1cc(Cl)c(Br)cc1Cl [Bromophos-E]
[1]
  Liver Mean (mean percent inhibition relative to the controls): 76%
[2]
  Brain Mean (mean percent inhibition relative to the controls): 68%

## Trichlorfon
[1]
  Liver Mean (mean percent inhibition relative to the controls): 91%
[2]
  Brain Mean (mean percent inhibition relative to the controls): 100%

## CCOP(=S)(OCC)SCCSCC [Disulfoton]
[1]
  Liver Mean (mean percent inhibition relative to the controls): 38%
[2]
  Brain Mean (mean percent inhibition relative to the controls): NO INHIBITION

## CCOC(=O)C(SP(=S)(OC)OC)c1ccccc1 (centres unmarked) [Phenthoate]
[1]
  Liver Mean (mean percent inhibition relative to the controls): 96%
[2]
  Brain Mean (mean percent inhibition relative to the controls): 55%

## COC(=O)/C(C)=C/OP(=S)(OC)OC [Methacrifos]
[1]
  Liver Mean (mean percent inhibition relative to the controls): 87%
[2]
  Brain Mean (mean percent inhibition relative to the controls): 61%

## CCOP(=S)(OCC)SCSC(C)(C)C [Terbufos]
[1]
  Liver Mean (mean percent inhibition relative to the controls): 72%
[2]
  Brain Mean (mean percent inhibition relative to the controls): 100%
